Measured values reported in patent US9770026B2, “Substituted pyrimidine compound and uses thereof” (Shenyang Sinochem Agrochemicals R&D Co., Ltd., priority 2012, dated 2017).

Legend:
cucumber downy mildew = assay: protectant activity in vivo against cucumber downy mildew; settings: Cucumis sativus, 168 h, protectant activity; for pest or weed control at 25 µg/mL: read-out: control effect against cucumber downy mildew (%), 25 mg/L; for pest or weed control at 50 µg/mL: read-out: control effect against cucumber downy mildew (%), 50 mg/L; for pest or weed control at 100 µg/mL: read-out: control effect against cucumber downy mildew (%), 100 mg/L; for pest or weed control at 400 µg/mL: read-out: control effect against cucumber downy mildew (%), 400 mg/L
cucumber gray mold = assay: fungicidal activity in vitro (inhibition rate) against cucumber gray mold; type: cell-based; settings: 25 ppm, in vitro; read-out: inhibition rate against cucumber gray mold
corn rust = assay: protectant activity in vivo against corn rust; settings: Zea mays, 168 h, protectant activity; for pest or weed control at 400 µg/mL: read-out: control effect against corn rust (%), 400 mg/L; for pest or weed control at 6.25 µg/mL: read-out: control effect against corn rust (%), 6.25 mg/L; for pest or weed control at 25 µg/mL: read-out: control effect against corn rust (%), 25 mg/L; for pest or weed control at 100 µg/mL: read-out: control effect against corn rust (%), 100 mg/L
wheat powdery mildew = assay: protectant activity in vivo against wheat powdery mildew; settings: Triticum aestivum, 168 h, protectant activity; for pest or weed control at 400 µg/mL: read-out: control effect against wheat powdery mildew (%), 400 mg/L; for pest or weed control at 6.25 µg/mL: read-out: control effect against wheat powdery mildew (%), 6.25 mg/L; for pest or weed control at 25 µg/mL: read-out: control effect against wheat powdery mildew (%), 25 mg/L; for pest or weed control at 100 µg/mL: read-out: control effect against wheat powdery mildew (%), 100 mg/L
armyworm = assay: bioactivity test against armyworm, airbrush spray; type: in vivo; settings: 72 h, 600 mg/L; read-out: Insecticidal activity against armyworm (%)
[1] = system: Green peach aphids (Myzus Persicae Sulzer); assay: bioactivity test against green peach aphid, airbrush foliar spray; type: in vivo; settings: Myzus persicae, foliar, 48 h, contrastive test, read-out: Insecticidal activity against peach aphid (%); for pest or weed control at 600 µg/mL: 600 mg/L; for pest or weed control at 10 µg/mL: 10 mg/L; for pest or weed control at 100 µg/mL: 100 mg/L
Procedure, shortened: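 Death rate was scored at 48 hrs, held at 25±1 C and 60±5% RH, following airbrush foliar spray (0.5 mL, 10 psi) onto cabbage leaf discs bearing about 15-30 aphids. Test solutions: compound dissolved in 1:1 acetone:methanol, brought to concentration with 0.1% tween 80 water.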

Diamond back moth = assay: insecticidal activity against diamond back moth, airbrush spray; type: in vivo; settings: 72 h, 600 mg/L
Procedure, shortened: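 Airbrush leaf-disc spray test: both faces of 2 cm cabbage discs received 0.5 ml of test solution at 0.7 kg/cm^2. Solutions were made in acetone:methanol (1:1) and brought to concentration with 0.1% Tween 80 in water. Ten second-instar larvae per disc, triplicates, were held at 25° C and 60˜70% R.H., with mortality recorded at 72 hrs.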

carmine spider mite = assay: bioactivity test against carmine spider mite, airbrush spray; type: in vivo; settings: Tetranychus cinnabarinus, 72 h, contrastive test, read-out: Insecticidal activity against carmine spider mite (% ); for pest or weed control at 600 µg/mL: 600 mg/L
Procedure, shortened: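 Broadbean seedlings infested with adult mites were sprayed with compound (acetone/methanol stock diluted in 0.1% Tween 80 water) by airbrush at 0.7 kg/cm^2, 0.5 ml. Three replicates were run. Mortality was scored after 72 hrs.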

Row | Structure (SMILES) | pest or weed control at 25 µg/mL (cucumber downy mildew) [%] | pest or weed control at 50 µg/mL (cucumber downy mildew) [%] | pest or weed control at 100 µg/mL (cucumber downy mildew) [%] | pest or weed control at 400 µg/mL (cucumber downy mildew) [%] | inhibition at 25 ppm (cucumber gray mold) [%] | pest or weed control at 400 µg/mL (corn rust) [%] | pest or weed control at 400 µg/mL (wheat powdery mildew) [%] | pest or weed control at 600 µg/mL (armyworm) [%] | pest or weed control at 600 µg/mL [1] [%] | pest or weed control at 600 µg/mL (Diamond back moth) [%] | pest or weed control at 600 µg/mL (carmine spider mite) [%] | pest or weed control at 6.25 µg/mL (corn rust) [%] | pest or weed control at 25 µg/mL (corn rust) [%] | pest or weed control at 100 µg/mL (corn rust) [%] | pest or weed control at 10 µg/mL [1] [%] | pest or weed control at 100 µg/mL [1] [%] | also measured
1 | CCc1ncnc(OCc2ccc(Oc3ccc(Cl)cc3)nc2)c1Cl [CK25, reference compound] | 0 | 0 | 0 | 100 | < 50 | 0 | 0 | 0 | 0 | 0 | 0 | – | – | – | – | – | –
2 | N#Cc1ccc(Oc2ccc(CCNc3nc(Cl)ncc3Cl)cc2)nc1 [CK26, reference compound] | 0 | 40 | 60 | 100 | 0 | 100 | 70 | 0 | 100 | 0 | 0 | 0 | 0 | 0 | 45 | 48 | –
3 | COC(=O)c1nc(Cl)nc(NC(C)c2ccc(Oc3ncc(C(F)(F)F)cc3Cl)cc2)c1Cl (stereo not shown) [CK34, reference compound] | – | – | – | 85 | 0 | 0 | 0 | 0 | 65 | 0 | 0 | – | – | – | – | – | –
4 | FC(F)(F)c1cccnc1Oc1ccc(CCNc2nc(Cl)ncc2Cl)cc1 [CK81, reference compound] | – | – | – | – | 0 | 80 | 40 | 14 | 75 | 0 | 0 | – | – | – | – | – | –
5 | FC(F)(F)c1cccnc1Oc1ccc(CCNc2cc(Cl)nc(Cl)n2)cc1 [CK82, reference compound] | – | – | – | – | 0 | 100 | 100 | 0 | 86 | 17 | 23 | 0 | 0 | 30 | 0 | – | pest or weed control at 6.25 µg/mL (wheat powdery mildew): 0%; pest or weed control at 25 µg/mL (wheat powdery mildew): 0%; pest or weed control at 100 µg/mL (wheat powdery mildew): 80%
6 | N#Cc1ccc(Oc2ccc(CCNc3cc(Cl)ncn3)cc2)nc1 [CK83, reference compound] | 85 | 98 | 100 | 100 | 0 | 30 | 100 | 29 | 100 | 17 | – | – | – | – | 11 | 100 | pest or weed control at 6.25 µg/mL (wheat powdery mildew): 40%; pest or weed control at 25 µg/mL (wheat powdery mildew): 70%; pest or weed control at 100 µg/mL (wheat powdery mildew): 100%
7 | Cc1nc(Cl)cc(NCCc2ccc(Oc3ccc(C#N)cn3)cc2)n1 [CK84, reference compound] | 85 | 100 | 100 | 100 | 0 | 100 | – | 0 | 100 | 0 | 100 | 0 | 60 | 90 | 7 | 43 | pest or weed control at 10 µg/mL (carmine spider mite; 10 mg/L): 0%; pest or weed control at 100 µg/mL (carmine spider mite; 100 mg/L): 0%
